Data taken from patent US20240174618A1, “SUBSTITUTED (2-HETEROARYLOXYPHENYL)SULFONATES, SALTS THEREOF AND THEIR USE AS HERBICIDAL AGENTS” (Bayer Aktiengesellschaft, priority 2021, published 2024).

What was measured:
Assay type in all cases: in vivo
[1] = tested on: Echinochloa crus-galli (ECHCG); experiment: A. Herbicidal pre-emergence efficacy, ECHCG; conditions: scored visually after about 3 weeks vs untreated controls
Method in brief: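 Applied before emergence onto covering soil at rates of 1280 g/ha or less, using 600 L/ha spray water with 0.5% additive. Scoring: visual % efficacy after ~3 weeks, greenhouse.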

[2] = tested on: Abutilon theophrasti (ABUTH); experiment: B. Herbicidal post-emergence efficacy, ABUTH; conditions: rated visually after about 3 weeks
Method in brief: (§1)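 Weeds grown in sandy loam in greenhouse pots, sprayed at one-leaf stage (2–3 weeks after sowing) with WP or EC formulations as aqueous suspension/emulsion plus 0.5% additive at 600 L/ha water, rates up to 1280 g/ha. Visual efficacy rated about 3 weeks later versus untreated controls (0% = like control, 100% = dead).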

[3] = tested on: Echinochloa crus-galli (ECHCG); experiment: C. Herbicidal pre-emergence efficacy, ECHCG; conditions: scored after about 3 weeks
Method in brief: (§2)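 Pre-emergence test: formulated compounds sprayed as aqueous suspension or emulsion with 0.5% additive at 600 l/ha onto soil covering sown seeds, at rates corresponding to 320 g/ha or less. After about 3 weeks in greenhouse, efficacy scored visually as percent versus untreated controls (100% = plants dead).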

Setaria viridis (SETVI) = experiment: C. Herbicidal pre-emergence efficacy, SETVI; conditions: scored after about 3 weeks
Method in brief: as §2

[4] = tested on: Polygonum convolvulus (POLCO); experiment: E. Herbicidal post-emergence efficacy, POLCO
Experimental: Seeds of monocotyledonous and dicotyledonous weeds and crop plants were placed in sandy loam in plastic or organic planting pots, covered with soil and cultivated in a greenhouse under controlled growth conditions. 2 to 3 weeks after sowing, the test plants were treated at the one-leaf stage. The compounds of the invention, formulated in the form of wettable powders (WP) or as emulsion concentrates (EC), were then sprayed onto the green parts of the plants as aqueous suspension or emulsion with addition of 0.5% additive at a water application rate of 600 l/ha (converted). After the test plants had been kept in the greenhouse under optimum growth conditions for about 3 weeks, the activity of the preparations was rated visually in comparison to untreated controls.
For example, • 100% efficacy=plants have died, • 0% action=like untreated control plants.
Tables E1a to E12b below show the effects of selected compounds of the general formula (I) according to table 1 on various harmful plants at an application rate corresponding to 320 g/ha or less, which were obtained by the experimental procedure mentioned above.

Veronica persica (VERPE) [5] = experiment: E. Herbicidal post-emergence efficacy, VERPE
Method in brief: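 Compounds applied at 320 g/ha or less as a foliar spray (600 l/ha, 0.5% additive) to one-leaf-stage greenhouse plants grown in sandy loam. Damage is visually scored in percent relative to untreated plants after about 3 weeks.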

Veronica persica (VERPE) [6] = experiment: B. Herbicidal post-emergence efficacy, VERPE
Method in brief: as §1

[7] = tested on: Triticum aestivum (TRZAS); experiment: F. Post-emergence effect on useful plants, TRZAS; conditions: useful plant
Method in brief: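 Visual efficacy rating versus untreated plants, from 0% (no effect) to 100% (plants died), made about 3 weeks after post-emergence treatment. Formulated compounds (WP or EC, 0.5% additive, 600 l/ha water) were sprayed onto greenhouse-grown crops at the one-leaf stage, 2-3 weeks after sowing.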

Compound | Pre-emergence efficacy against ECHCG ([1]; 80 g/ha) | Pre-emergence efficacy against ECHCG ([1]; 320 g/ha) | Pre-emergence efficacy against ECHCG ([1]; 1280 g/ha) | Post-emergence efficacy against ABUTH in % ([2]; 80 g/ha) | Post-emergence efficacy against ABUTH in % ([2]; 320 g/ha) | Post-emergence efficacy against ABUTH in % ([2]; 1280 g/ha) | Pre-emergence efficacy against ECHCG ([3]; 80 g/ha) | Pre-emergence efficacy against ECHCG ([3]; 320 g/ha) | Pre-emergence efficacy against SETVI (Setaria viridis (SETVI); 80 g/ha) | Pre-emergence efficacy against SETVI (Setaria viridis (SETVI); 320 g/ha) | Post-emergence efficacy against POLCO in % ([4]; application rate 80 g/ha) | Post-emergence efficacy against POLCO in % ([4]; application rate 320 g/ha) | Post-emergence efficacy against VERPE in % (Veronica persica (VERPE) [5]; application rate 80 g/ha) | Post-emergence efficacy against VERPE in % (Veronica persica (VERPE) [5]; application rate 320 g/ha) | Post-emergence efficacy against VERPE (Veronica persica (VERPE) [6]; 80 g/ha) | Post-emergence efficacy against VERPE (Veronica persica (VERPE) [6]; 320 g/ha) | Post-emergence efficacy against VERPE (Veronica persica (VERPE) [6]; 1280 g/ha) | Post-emergence efficacy against TRZAS in % ([7]; application rate 80 g/ha) | Post-emergence efficacy against TRZAS in % ([7]; application rate 320 g/ha)
O=S(=O)(CCCC(F)(F)F)Oc1ccccc1Oc1ncc(Cl)cn1 [Example I-10] | 100% | 100% | 100% | 90% | 90% | 90% | 100% | 100% | 100% | 100% | 90% | 100% | 100% | 100% |  |  |  |  | 
CCS(=O)(=O)Oc1ccccc1Oc1ncc(Cl)cn1 [Example I-16] |  | 90% | 100% |  | 90% | 100% |  |  |  |  |  |  |  |  | 100% | 100% | 100% |  | 
CCCCCS(=O)(=O)Oc1ccccc1Oc1ncc(Cl)cn1 [Example I-24] |  | 100% | 100% |  | 90% | 90% |  | 100% |  | 80% |  |  | 90% | 100% | 90% | 100% | 100% | 0% | 0%
CC(C)CCS(=O)(=O)Oc1ccccc1Oc1ncc(Cl)cn1 [Example I-25] |  | 100% | 100% |  | 90% | 100% | 100% | 100% | 80% | 100% |  |  | 90% | 100% | 100% | 100% | 100% | 0% | 0%
Cc1cccc(Oc2ncc(Cl)cn2)c1OS(=O)(=O)CCCC(F)(F)F [Example I-28, 2-[(5-Chloropyrimidin-2-yl)oxy]-6-methylphenyl 4,4,4-trifluorobutane-1-sulfonate] | 90% | 100% | 100% |  | 100% | 100% |  |  |  |  |  |  |  |  | 100% | 100% | 100% |  | 
Cc1cccc(Oc2ncc(Cl)cn2)c1OS(=O)(=O)CCC(F)(F)F [Example I-29] |  | 100% | 100% | 90% | 100% | 100% |  |  |  |  |  |  |  |  | 90% | 90% | 100% |  | 
O=S(=O)(CCCC(F)(F)F)Oc1c(Br)cccc1Oc1ncc(Cl)cn1 [Example I-30] |  | 100% | 100% | 90% | 90% | 100% |  |  |  |  |  |  |  |  | 90% | 100% | 100% |  | 
O=S(=O)(CCC(F)(F)F)Oc1c(Br)cccc1Oc1ncc(Cl)cn1 [Example I-31] |  |  | 100% | 90% | 100% | 100% |  |  |  |  |  |  |  |  | 90% | 90% | 100% |  | 
C=CCS(=O)(=O)Oc1ccccc1Oc1ncc(Cl)cn1 [Example I-36] |  |  | 100% |  |  |  |  | 80% |  |  |  |  | 80% | 100% |  | 90% | 100% | 0% | 0%
O=S(=O)(CCCC(F)(F)F)Oc1c(F)cccc1Oc1ncc(F)cn1 [Example I-42] | 100% | 100% | 100% | 100% | 100% | 100% | 100% | 100% | 100% | 100% | 100% | 100% | 100% | 100% |  |  |  |  | 
O=S(=O)(CCC(F)=C(F)F)Oc1c(Cl)cccc1Oc1ncc(Cl)cn1 [Example I-73] |  |  | 90% | 90% | 100% | 100% |  | 90% |  | 100% |  |  | 90% | 100% | 100% | 100% | 100% | 0% | 20%
Cc1cccc(Oc2ncc(Cl)cn2)c1OS(=O)(=O)CC1CC(F)(F)C1 [Example I-74] |  | 90% | 100% | 100% | 100% | 100% |  | 100% | 100% | 100% |  |  | 90% | 100% | 100% | 100% | 100% | 0% | 
